The test system of assay [1] is DB/DB diabetes-induced mice. The experiment in a line: Blood sugar levels over time in DB/DB diabetes-induced mice administered with the peptides. The format is in vivo, mouse. The settings on record: for blood sugar levels: High-Fat Diabetes DB/DB mice; for blood sugar levels (course over time): DB/DB mice. The method, then:
In addition, after starvation for 16 hours, DB/DB diabetes-induced mice were fed for 30 minutes and then administered with the peptides. Blood sugar levels were measured over times and the results are shown in FIGS. 22 and 23 and Tables 7 and 8.

Assay [2] deals with adipogenic markers (PPARγ, ACC, and aP2) in 3T3-L1 cells. Description: Suppression of expression of genes involved in adipogenesis (RT-PCR). It counts as cell-based, mouse. The settings on record: TNFα 100 ng/ml; for expression levels of the adipogenic marker aP2 (gene): peptides/peptide complexes 0.1, 1, 10 μg/ml. The method, then:
3T3-L1 cells (pre-adipocytes) were seeded at a density of 3×10^5 cells/well into 6-well plates. After incubating for 24 hours, the cells were incubated for 14 days in a 37° C. incubator after treatment with various concentrations (0.1, 1, and 10 μg/ml) of the peptides. Thereafter, the cells were harvested and treated with an RNA extraction solution (Easy Blue, Intron) to prepare for RNA from which cDNA was then synthesized using an RT premix (Intron). PCR was performed using primers for the adipogenic markers (PPARγ, ACC, and aP2), and a PCR premix (Intron). Next, the PCR products were each loaded in an amount of 5 μl into a 1% agarose gel and electrophoresis was performed, and then bands were identified in a Gel-Doc.
Target-specific primer sequences for PCR of adipogenic markers are as follows: […]

The test system of assay [3] is pre-adipocytes 3T3-L1 cells. The experiment in a line: Inhibition of fat accumulation using pre-adipocyte (Oil Red O staining). The format is cell-based, mouse. The settings on record: 3T3-L1, differentiation induced 10 days, various concentrations. How it is done:
The pre-adipocytes 3T3-L1 cells were incubated until becoming confluent, and then incubated for two days after treatment with various concentrations of the peptides in a differentiation medium containing 10 μg/ml insulin, 0.1 μM dexamethasone, and 0.5 μM IBMX. Thereafter, the medium was exchanged every two days to a medium containing 10 μg/ml insulin. After differentiation was induced for 10 days, the generation of droplet in the cells was confirmed by Oil Red 0 staining.
The prepared 3T3-L1 pre-adipocytes were washed with PBS, fixed with 3.7% formalin for 1 hour, were washed with 60% isopropanol, and then were dyed with Oil Red O solution at room temperature for 20 minutes. After completion of dyeing, the Oil Red O solution was removed, the cells were washed three times with distilled water, and then the dyed cells were observed under a phase contrast microscope. For quantitative analysis, fats were extracted from the cells using 100% isopropanol, and the cells were transferred in an amount of 200 μl/well into 96-well plates and measured for optical density at 500 nm using an ELISA reader.

Assay [4] relates to DIO C57BL/6 mouse fed high-fat diet. The experiment in a line: Adipogenesis-suppressive and lipolysis-promotive effect in DIO (diets induced obesity) mice. The format is in vivo. The settings on record: micro-CT; HDF (10 weeks) + treatment (8 weeks).
For assay [5] the test system is unchanged. The assay is described as above. The format is in vivo. The method, then:
Obesity-induced Models DIO (diets induced obesity), which had become obese by feeding high-fat diets to normal C57BL/6 mouse, were used for the anti-obesity experiment in which 5 μg/ml of TNFα was used as a positive control drug. For a control, a general diet, not a high-fat diet, was fed. In this experiment, a high-fat diet was fed for 12 weeks, while the peptide complexes or the positive control drug were applied. During the experiment, the weight loss was confirmed.
TNFα and the anti-obesity active compounds were intraperitoneally injected at 3:00 to 4:00 pm every week for 12 weeks. Body weights and dietary amounts were measured just before the first drug injection, and then measured at weekly intervals.
Blood samples were collected from the tail vein after the end of the drug injection experiment, and then blood sugar levels were measured using Accu-Check Active (Roche) and cholesterol levels were analyzed using Cholesterol calculation Kit (BioVision).
Adipose tissues are classified into white fat and brown fat depending on the color and are classified into subcutaneous fat, abdominal fat, mesentery fat (visceral fat), and epididymal fat depending on the site. After dissection, each fat was extracted. For histological examination, the fats were fixed with 10% neutral buffered formalin, embedded in paraffin blocks, cut into […] sections, and dyed with hematoxylin and eosin.
To analyze the degree of phosphorylation of the lipolytic factor HSL, fluorescent staining was carried out using an anti-pHSL antibody. The tissue samples were prepared, mounted on glycerine jell mounting media, and covered with a cover glass. The tissues were taken with a digital camera built into a microscope (Nikon, TS100) and images were observed under the microscope.

The mark [6] stands for this setting: peptide complexes 0.1, 1, 10 μg/ml.

The text below walks through data of patent US10723777B2, “Peptide having anti-obesity and anti-diabetes efficacy and use thereof” (CAREGEN CO., LTD., priority 2016, dated 2020).

Turning to ACYLPHPWFC (Peptide 4) [SEQ ID NO: 4], the blood sugar levels amounted to 249 mg/dL in assay [1] (30 minutes); 229 mg/dL in assay [1] (60 minutes); 215 mg/dL in assay [1] (120 minutes); 180 mg/dL in assay [1] (240 minutes); 165 mg/dL in assay [1] (300 minutes); 222 mg/dL in assay [1] (Fasting). The “blood sugar levels (course over time)” value in assay [1] is listed as “lowered in a time-dependent manner”. In addition, the “expression levels of the adipogenic marker aP2 (gene)” value in assay [2] is listed as “decreased”. Further, the “degree of fat accumulation in the cells (Oil Red O staining)” value in assay [3] is reported as “decreased”.

Take KGACTGWMA (Peptide 2) [SEQ ID NO: 2]: the blood sugar levels in assay [1] (30 minutes) worked out at 219 mg/dL; in assay [1] (60 minutes), 231 mg/dL; in assay [1] (120 minutes), 174 mg/dL; in assay [1] (240 minutes) it was 158 mg/dL; in assay [1] (300 minutes) it was 152 mg/dL; in assay [1] (Fasting) it was 181 mg/dL. Further, in assay [1], the “blood sugar levels (course over time)” value is given as “lowered in a time-dependent manner”. Further, the “expression levels of the adipogenic marker aP2 (gene)” value in assay [2] is given as “decreased”. In assay [3], the “degree of fat accumulation in the cells (Oil Red O staining)” value was “decreased”.

On to TNFα, for which, in assay [4], the “Total Fat” value came to 4165.80 mm^3. Also, the “Total Volume” value in assay [4] amounted to 8240.67 mm^3. Moreover, the “Visceral Fat” value in assay [4] worked out at 2833.72 mm^3. For the same substance, in assay [2] (setting [6]), the “expression levels of the adipogenic marker ACC (gene)” value is given as “decreased”. For the same substance, in assay [2] (setting [6]), the “expression levels of the adipogenic marker PPARγ (gene)” value is recorded as “decreased”. Besides, the “expression levels of the adipogenic marker aP2 (gene)” value in assay [2] is on record as “decreased”. Further, the body weight was found to be 22.41 g in assay [5] (Week 0, high-fat diet); 23.00 g in assay [5] (Week 1, high-fat diet); 26.12 g in assay [5] (Week 2, high-fat diet); 27.45 g in assay [5] (Week 3, high-fat diet); 30.51 g in assay [5] (Week 4, high-fat diet); 32.76 g in assay [5] (Week 5, high-fat diet). The body weight in assay [5] (Week 6, high-fat diet) amounted to 33.49 g; in assay [5] (Week 7, high-fat diet), 35.14 g; in assay [5] (Week 8, high-fat diet) it was 37.15 g; in assay [5] (Week 9, high-fat diet) it was 38.97 g; in assay [5] (Week 10, high-fat diet), 40.39 g; in assay [5] (Week 11, high-fat diet), 41.35 g. This substance also returned a body weight in assay [5] (Week 12, high-fat diet) of 43.91 g. Further, the “body weight in percentage” value in assay [5] (Week 0, high-fat diet) worked out at 100%; in assay [5] (Week 1, high-fat diet) it was 102.6%; in assay [5] (Week 2, high-fat diet), 116.6%; in assay [5] (Week 3, high-fat diet) it was 122.5%; in assay [5] (Week 4, high-fat diet) it was 136.1%; in assay [5] (Week 5, high-fat diet) it was 146.2%. Moreover, the “body weight in percentage” value in assay [5] (Week 6, high-fat diet) is on record as 149.4%; in assay [5] (Week 7, high-fat diet) it was 156.8%; in assay [5] (Week 8, high-fat diet), 165.8%; in assay [5] (Week 9, high-fat diet), 173.9%; in assay [5] (Week 10, high-fat diet), 180.2%; in assay [5] (Week 11, high-fat diet), 184.5%. The “body weight in percentage” value in assay [5] (Week 12, high-fat diet) was determined as 195.9%. The “Subcutaneous Fat” value in assay [5] (micro-CT, HDF (10 weeks) + treatment (8 weeks)) is reported as 1332.08 mm^3.
